Measurements published in the OligoGym collection.
Where “and” joins values, the source holds several entries; their conditions need not be identical. Equal values may be shown once. HELM strings list units from the 5' end as sugar, base in round brackets, then linkage (d deoxyribose, r ribose, m 2'-O-methyl, p phosphodiester). Methylation of C is not given here. [moe] = 2'-O-(2-methoxyethyl) (MOE); [cEt] = constrained ethyl (cEt); [sp] = phosphorothioate linkage

Target: HBV
Details: ASO

Row | Substance | target mRNA inhibition (HepG2, 0.07 µM) | further results
1 | RNA1{[moe](A)[sp].[moe](A)[sp].[moe](C)[sp].d(T)[sp].d(G)[sp].d(G)[sp].d(A)[sp].d(G)[sp].d(C)[sp].d(C)[sp].d(A)[sp].d(C)[sp].[moe](C)[sp].[moe](A)[sp].[moe](G)[sp].[moe](C)}$$$$V2.0 | 59% and 56% | –
2 | RNA1{[moe](A)[sp].[moe](A)[sp].[moe](G)[sp].[moe](C)[sp].[cEt](G)[sp].[cEt](A)[sp].d(A)[sp].d(G)[sp].d(T)[sp].d(G)[sp].d(C)[sp].d(A)[sp].d(C)[sp].[moe](A)[sp].[moe](C)[sp].[moe](G)[sp].[moe](G)}$$$$V2.0 | – | target mRNA inhibition (HepG2, 0.009375 µM): 26%; target mRNA inhibition (HepG2, 0.01875 µM): 29%; target mRNA inhibition (HepG2, 0.0375 µM): 30%; target mRNA inhibition (HepG2, 0.075 µM): 64%; target mRNA inhibition (HepG2, 0.15 µM): 80%; target mRNA inhibition (HepG2, 0.3 µM): 91%
3 | RNA1{[moe](A)[sp].[moe](A)[sp].[moe](G)[sp].[moe](C)[sp].d(G)[sp].d(A)[sp].d(A)[sp].d(G)[sp].d(T)[sp].d(G)[sp].d(C)[sp].d(A)[sp].d(C)[sp].[moe](A)[sp].[moe](C)[sp].[moe](G)}$$$$V2.0 | 68% and 62% | –
4 | RNA1{[moe](A)[sp].[moe](A)[sp].[moe](G)[sp].d(A)[sp].d(T)[sp].d(G)[sp].d(A)[sp].d(G)[sp].d(G)[sp].d(C)[sp].d(A)[sp].d(T)[sp].[moe](A)[sp].[moe](G)[sp].[moe](C)[sp].[moe](A)[sp].[moe](G)}$$$$V2.0 | 69% and 60% | –
5 | RNA1{[moe](A)[sp].[moe](A)[sp].[moe](T)[sp].[moe](T)[sp].[moe](T)[sp].d(A)[sp].d(T)[sp].d(G)[sp].d(C)[sp].d(C)[sp].d(T)[sp].d(A)[sp].d(C)[sp].d(A)[sp].[moe](G)[sp].[moe](C)}$$$$V2.0 | 39% and 23% | –
6 | RNA1{[moe](A)[sp].[moe](A)[sp].[moe](T)[sp].d(T)[sp].d(T)[sp].d(A)[sp].d(T)[sp].d(G)[sp].d(C)[sp].d(C)[sp].d(T)[sp].d(A)[sp].[moe](C)[sp].[moe](A)[sp].[moe](G)[sp].[moe](C)}$$$$V2.0 | 52% and 49% | –
7 | RNA1{[moe](A)[sp].[moe](A)[sp].d(G)[sp].d(C)[sp].d(G)[sp].d(A)[sp].d(A)[sp].d(G)[sp].d(T)[sp].d(G)[sp].d(C)[sp].[moe](A)[sp].[moe](C)[sp].[moe](A)[sp].[moe](C)[sp].[moe](G)[sp].[moe](G)}$$$$V2.0 | 88% and 80% | target mRNA inhibition (HepG2, 0.0092593 µM): 11%; target mRNA inhibition (HepG2, 0.0277778 µM): 27%; target mRNA inhibition (HepG2, 0.0833333 µM): 58%; target mRNA inhibition (HepG2, 0.25 µM): 80%
8 | RNA1{[moe](A)[sp].[moe](C)[sp].[moe](C)[sp].[moe](A)[sp].[moe](C)[sp].d(T)[sp].d(G)[sp].d(A)[sp].d(A)[sp].d(C)[sp].d(A)[sp].d(A)[sp].d(A)[sp].d(T)[sp].[moe](G)[sp].[moe](G)[sp].[moe](C)}$$$$V2.0 | 59% and 61% | –
9 | RNA1{[moe](A)[sp].[moe](C)[sp].[moe](C)[sp].[moe](A)[sp].d(C)[sp].d(T)[sp].d(G)[sp].d(A)[sp].d(A)[sp].d(C)[sp].d(A)[sp].d(A)[sp].d(A)[sp].[moe](T)[sp].[moe](G)[sp].[moe](G)}$$$$V2.0 | 54% and 65% | –
10 | RNA1{[moe](A)[sp].[moe](C)[sp].[moe](C)[sp].d(A)[sp].d(A)[sp].d(T)[sp].d(T)[sp].d(T)[sp].d(A)[sp].d(T)[sp].d(G)[sp].d(C)[sp].d(C)[sp].[cEt](T)[sp].[cEt](A)[sp].[cEt](C)}$$$$V2.0 | 24% and 28% | –
11 | RNA1{[moe](A)[sp].[moe](C)[sp].[moe](G)[sp].[moe](G)[sp].[moe](G)[sp].[moe](C)[sp].d(A)[sp].d(A)[sp].d(C)[sp].d(A)[sp].d(T)[sp].d(A)[sp].d(C)[sp].d(C)[sp].d(T)[sp].[moe](T)[sp].[moe](G)}$$$$V2.0 | 0% | –
12 | RNA1{[moe](A)[sp].[moe](C)[sp].[moe](G)[sp].[moe](G)[sp].[moe](G)[sp].d(C)[sp].d(A)[sp].d(A)[sp].d(C)[sp].d(A)[sp].d(T)[sp].d(A)[sp].d(C)[sp].d(C)[sp].[moe](T)[sp].[moe](T)[sp].[moe](G)}$$$$V2.0 | 48% and 45% | –
13 | RNA1{[moe](A)[sp].[moe](C)[sp].[moe](G)[sp].[moe](G)[sp].d(G)[sp].d(C)[sp].d(A)[sp].d(A)[sp].d(C)[sp].d(A)[sp].d(T)[sp].d(A)[sp].d(C)[sp].[moe](C)[sp].[moe](T)[sp].[moe](T)[sp].[moe](G)}$$$$V2.0 | 38% and 41% | –
14 | RNA1{[moe](A)[sp].[moe](C)[sp].[moe](G)[sp].[moe](G)[sp].d(G)[sp].d(C)[sp].d(A)[sp].d(A)[sp].d(C)[sp].d(A)[sp].d(T)[sp].d(A)[sp].d(C)[sp].[moe](C)[sp].[moe](T)[sp].[moe](T)}$$$$V2.0 | 50% and 54% | –
15 | RNA1{[moe](A)[sp].[moe](C)[sp].[moe](G)[sp].[moe](T)[sp].[moe](G)[sp].d(C)[sp].d(A)[sp].d(G)[sp].d(A)[sp].d(G)[sp].d(G)[sp].d(T)[sp].d(G)[sp].d(A)[sp].[moe](A)[sp].[moe](G)}$$$$V2.0 | 6% and 13% | –
16 | RNA1{[moe](A)[sp].[moe](C)[sp].[moe](G)[sp].[moe](T)[sp].d(G)[sp].d(C)[sp].d(A)[sp].d(G)[sp].d(A)[sp].d(G)[sp].d(G)[sp].d(T)[sp].d(G)[sp].[moe](A)[sp].[moe](A)[sp].[moe](G)[sp].[moe](C)}$$$$V2.0 | 62% and 57% | –
17 | RNA1{[moe](A)[sp].[moe](C)[sp].[moe](G)[sp].[moe](T)[sp].d(G)[sp].d(C)[sp].d(A)[sp].d(G)[sp].d(A)[sp].d(G)[sp].d(G)[sp].d(T)[sp].d(G)[sp].[moe](A)[sp].[moe](A)[sp].[moe](G)}$$$$V2.0 | 53% and 45% | –
18 | RNA1{[moe](A)[sp].[moe](C)[sp].[moe](G)[sp].d(T)[sp].d(G)[sp].d(C)[sp].d(A)[sp].d(G)[sp].d(A)[sp].d(G)[sp].d(G)[sp].d(T)[sp].d(G)[sp].[cEt](A)[sp].[cEt](A)[sp].[cEt](G)}$$$$V2.0 | 74% and 78% | –
19 | RNA1{[moe](A)[sp].[moe](C)[sp].[moe](T)[sp].[moe](A)[sp].[moe](G)[sp].d(T)[sp].d(A)[sp].d(A)[sp].d(A)[sp].d(C)[sp].d(T)[sp].d(G)[sp].d(A)[sp].d(G)[sp].[moe](C)[sp].[moe](C)}$$$$V2.0 | 64% and 66% | –
20 | RNA1{[moe](A)[sp].[moe](C)[sp].[moe](T)[sp].[moe](A)[sp].d(G)[sp].d(T)[sp].d(A)[sp].d(A)[sp].d(A)[sp].d(C)[sp].d(T)[sp].d(G)[sp].d(A)[sp].[moe](G)[sp].[moe](C)[sp].[moe](C)[sp].[moe](A)}$$$$V2.0 | 62% and 58% | –
21 | RNA1{[moe](A)[sp].[moe](C)[sp].[moe](T)[sp].[moe](G)[sp].[moe](G)[sp].[moe](A)[sp].d(G)[sp].d(C)[sp].d(C)[sp].d(A)[sp].d(C)[sp].d(C)[sp].d(A)[sp].d(G)[sp].d(C)[sp].[moe](A)[sp].[moe](G)}$$$$V2.0 | 66% and 46% | –
22 | RNA1{[moe](A)[sp].[moe](C)[sp].[moe](T)[sp].d(G)[sp].d(G)[sp].d(A)[sp].d(G)[sp].d(C)[sp].d(C)[sp].d(A)[sp].d(C)[sp].d(C)[sp].d(A)[sp].[cEt](G)[sp].[cEt](C)[sp].[cEt](A)}$$$$V2.0 | 64% and 73% | –
23 | RNA1{[moe](A)[sp].[moe](C)[sp].d(C)[sp].d(A)[sp].d(C)[sp].d(T)[sp].d(G)[sp].d(A)[sp].d(A)[sp].d(C)[sp].d(A)[sp].[moe](A)[sp].[moe](A)[sp].[moe](T)[sp].[moe](G)[sp].[moe](G)[sp].[moe](C)}$$$$V2.0 | 58% and 68% | –
24 | RNA1{[moe](A)[sp].[moe](C)[sp].d(G)[sp].d(G)[sp].d(G)[sp].d(C)[sp].d(A)[sp].d(A)[sp].d(C)[sp].d(A)[sp].d(T)[sp].[moe](A)[sp].[moe](C)[sp].[moe](C)[sp].[moe](T)[sp].[moe](T)}$$$$V2.0 | 61% and 42% | –
25 | RNA1{[moe](A)[sp].[moe](C)[sp].d(T)[sp].d(G)[sp].d(G)[sp].d(A)[sp].d(G)[sp].d(C)[sp].d(C)[sp].d(A)[sp].d(C)[sp].[moe](C)[sp].[moe](A)[sp].[moe](G)[sp].[moe](C)[sp].[moe](A)}$$$$V2.0 | 53% and 42% | –
26 | RNA1{[moe](A)[sp].[moe](G)[sp].[moe](A)[sp].[moe](G)[sp].d(A)[sp].d(A)[sp].d(G)[sp].d(T)[sp].d(C)[sp].d(C)[sp].d(A)[sp].d(C)[sp].d(C)[sp].[moe](A)[sp].[moe](C)[sp].[moe](G)[sp].[moe](A)}$$$$V2.0 | 17% | –
27 | RNA1{[moe](A)[sp].[moe](G)[sp].[moe](A)[sp].[moe](T)[sp].[moe](G)[sp].d(A)[sp].d(G)[sp].d(G)[sp].d(C)[sp].d(A)[sp].d(T)[sp].d(A)[sp].d(G)[sp].d(C)[sp].[moe](A)[sp].[moe](G)}$$$$V2.0 | 41% and 31% | –
28 | RNA1{[moe](A)[sp].[moe](G)[sp].[moe](A)[sp].d(A)[sp].d(G)[sp].d(T)[sp].d(C)[sp].d(C)[sp].d(A)[sp].d(C)[sp].d(C)[sp].d(A)[sp].d(C)[sp].[cEt](G)[sp].[cEt](A)[sp].[cEt](G)}$$$$V2.0 | 42% and 55% | –
29 | RNA1{[moe](A)[sp].[moe](G)[sp].[moe](A)[sp].d(G)[sp].d(G)[sp].d(T)[sp].d(G)[sp].d(A)[sp].d(A)[sp].d(G)[sp].d(C)[sp].d(G)[sp].[moe](A)[sp].[moe](A)[sp].[moe](G)[sp].[moe](T)[sp].[moe](G)}$$$$V2.0 | 70% and 52% | –
30 | RNA1{[moe](A)[sp].[moe](G)[sp].[moe](C)[sp].[moe](G)[sp].[moe](A)[sp].d(A)[sp].d(G)[sp].d(T)[sp].d(G)[sp].d(C)[sp].d(A)[sp].d(C)[sp].d(A)[sp].d(C)[sp].[moe](G)[sp].[moe](G)}$$$$V2.0 | 79% and 74% | –
